From ChEMBL document CHEMBL3045946, “Synthesis and biological activity studies of new hybrid molecules containing tryptamine moiety” (2012) come the findings set out here.

Structures are written as SMILES. The source made the active and inactive calls. The rule behind the calls is not given here.

In assay [1] the test system is Enterococcus faecalis. Kind of assay: Antibacterial activity against Enterococcus faecalis ATCC 29212 after 18 hr by agar well diffusion method. It counts as functional.
Assay [2] relates to Candida tropicalis. Kind of assay: Antifungal activity against Candida tropicalis after 18 hr by agar well diffusion method. It counts as functional, organism-based.
Assay [3] deals with Candida albicans. The experiment in a line: Antifungal activity against Candida albicans ATCC 60193 after 18 hr by agar well diffusion method. It counts as functional, organism-based.
Assay [4] has as its system Staphylococcus aureus. The experiment in a line: Antibacterial activity against Staphylococcus aureus ATCC 25923 after 18 hr by agar well diffusion method. Format: functional.
The subject of assay [5] is Mycolicibacterium smegmatis. The experiment in a line: Antibacterial activity against Mycobacterium smegmatis ATCC 607 after 18 hr by agar well diffusion method. As to IZ: test concentration or dose not given here. It counts as functional.
For assay [6], the system named is Bacillus cereus. Kind of assay: Antibacterial activity against Bacillus cereus 702 Roma after 18 hr by agar well diffusion method. As to IZ: test concentration or dose not given here. It counts as functional.
Assay [7] relates to Pseudomonas aeruginosa. The experiment in a line: Antibacterial activity against Pseudomonas aeruginosa ATCC 43288 after 18 hr by agar well diffusion method. It counts as functional.
Assay [8] has as its system Saccharomyces cerevisiae. Kind of assay: Antifungal activity against Saccharomyces cerevisiae RSKK 251 after 18 hr by agar well diffusion method. It counts as functional, organism-based.

For the molecule `O=C(Cn1nc(Cc2ccc(Cl)cc2)n(CCc2c[nH]c3ccccc23)c1=O)N/N=C/c1ccc[nH]1`, the outcome in assay [1], in assay [2], in assay [3], in assay [4], in assay [6] and in assay [7] was inactive. In addition, the result in assay [8] was inactive. Besides, the “inhibition zone (IZ)” value in assay [5] stood at 6 mm.
As to `COc1ccc(/C=N/n2c(S)nnc2Cn2nc(Cc3ccc(C)cc3)n(CCc3c[nH]c4ccccc34)c2=O)cc1`, the result in assay [1], in assay [2], in assay [3] and in assay [8] was inactive. The “inhibition zone (IZ)” value is given as 11 mm in assay [4], 6 mm in assay [5], 12 mm in assay [6] and 12 mm in assay [7].
Regarding `Cc1ccc(Cc2nn(Cc3nnc(S)n3N)c(=O)n2CCc2c[nH]c3ccccc23)cc1`, the outcome in assay [1], in assay [2], in assay [3], in assay [4], in assay [7] and in assay [8] was inactive. In addition, the “inhibition zone (IZ)” value came out at 6 mm in assay [5] and 7 mm in assay [6].
On to `Cc1ccc(Cc2nn(CC(=O)N/N=c3\scc(-c4ccc(Cl)cc4)n3-c3ccccc3)c(=O)n2CCc2c[nH]c3ccccc23)cc1`, for which the outcome in assay [1], in assay [2], in assay [3], in assay [4], in assay [5] and in assay [6] was inactive. In addition, the result in assay [7] and in assay [8] was inactive.
Turning to `Cc1ccc(Cc2nn(CC(=O)NNS(=O)(=O)c3ccc(Br)cc3)c(=O)n2CCc2c[nH]c3ccccc23)cc1`, the outcome in assay [1], in assay [2], in assay [3], in assay [4] and in assay [8] was inactive. Further, the “inhibition zone (IZ)” value amounted to 7 mm in assay [5], 8 mm in assay [6] and 10 mm in assay [7].
Turning to `O=C(Cn1nc(Cc2ccc(Cl)cc2)n(CCc2c[nH]c3ccccc23)c1=O)NNS(=O)(=O)c1ccc(Cl)cc1`, the outcome in assay [2], in assay [3] and in assay [8] was inactive. Also, the “inhibition zone (IZ)” value in assay [4] came to 11 mm; in assay [5] it was 14 mm; in assay [6], 12 mm; in assay [7], 12 mm.
As to `O=c1[nH]nc(Cn2nc(Cc3ccc(Cl)cc3)n(CCc3c[nH]c4ccccc34)c2=O)n1Cc1ccccc1`, the result in assay [1], in assay [2], in assay [3], in assay [4] and in assay [8] was inactive. In addition, the “inhibition zone (IZ)” value in assay [5] turned out to be 10 mm; in assay [6] it was 12 mm; in assay [7], 10 mm.
Consider `Cc1ccc(Cc2nn(Cc3n[nH]c(=O)n3Cc3ccccc3)c(=O)n2CCc2c[nH]c3ccccc23)cc1`, for which the outcome in assay [1], in assay [2], in assay [3], in assay [4] and in assay [8] was inactive. Also, the “inhibition zone (IZ)” value turned out to be 10 mm in assay [5], 7 mm in assay [6] and 6 mm in assay [7].
Consider `CN[C@@H]1[C@H](O[C@H]2[C@H](O[C@H]3[C@H](O)[C@@H](O)[C@H](N=C(N)N)[C@@H](O)[C@@H]3N=C(N)N)O[C@@H](C)[C@]2(O)C=O)O[C@@H](CO)[C@H](O)[C@H]1O` [STREPTOMYCIN], for which the “inhibition zone (IZ)” value in assay [5] was determined as 35 mm.
